# System: 454973-116-R2-J3-PDC complex spheroid viability
# Assay: Anticancer human tumor 454973-116-R2-J3-PDC patient-derived pancreatic carcinoma cell line growth inhibition [POLQ]
# Settings: for IC50: curve of first compound; for viability, T/C: stronger effect = lower value
# Outline: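 PDC + HUVEC + MSC complex spheroids; POLQ inhibitors ± partner drugs; top conc. at/near clinical Cmax, else 10 microM (SN-38 1 microM), half-log dilutions; 37 degrees C, 5% CO2.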
# [1] = second compound 0.0316 µM, first compound 0.00316 µM
# [2] = second compound 0.0316 µM, first compound 0.01 µM
# [3] = second compound 0.0316 µM, first compound 0.0316 µM
# [4] = second compound 0.0316 µM, first compound 0.1 µM
# [5] = second compound 0.0316 µM, first compound 0.316 µM
# [6] = second compound 0.0316 µM, first compound 1 µM
# [7] = second compound 0.1 µM, first compound 0.00316 µM
# [8] = second compound 0.1 µM, first compound 0.01 µM
# [9] = second compound 0.1 µM, first compound 0.0316 µM
# [10] = second compound 0.1 µM, first compound 0.1 µM
# [11] = second compound 0.1 µM, first compound 0.316 µM
# [12] = second compound 0.1 µM, first compound 1 µM
# [13] = second compound 0.316 µM, first compound 0.00316 µM
# [14] = second compound 0.316 µM, first compound 0.01 µM
# [15] = second compound 0.316 µM, first compound 0.0316 µM
# [16] = second compound 0.316 µM, first compound 0.1 µM
# [17] = second compound 0.316 µM, first compound 0.316 µM
# [18] = second compound 0.316 µM, first compound 1 µM
# [19] = second compound 1 µM, first compound 0.00316 µM
# [20] = second compound 1 µM, first compound 0.01 µM
# [21] = second compound 1 µM, first compound 0.0316 µM
# [22] = second compound 1 µM, first compound 0.1 µM
# [23] = second compound 1 µM, first compound 0.316 µM
# [24] = second compound 1 µM, first compound 1 µM
# [25] = second compound 3.16 µM, first compound 0.00316 µM
# [26] = second compound 3.16 µM, first compound 0.01 µM
# [27] = second compound 3.16 µM, first compound 0.0316 µM
# [28] = second compound 3.16 µM, first compound 0.1 µM
# [29] = second compound 3.16 µM, first compound 0.316 µM
# [30] = second compound 3.16 µM, first compound 1 µM
# [31] = second compound 10 µM, first compound 0.00316 µM
# [32] = second compound 10 µM, first compound 0.01 µM
# [33] = second compound 10 µM, first compound 0.0316 µM
# [34] = second compound 10 µM, first compound 0.1 µM
# [35] = second compound 10 µM, first compound 0.316 µM
# [36] = second compound 10 µM, first compound 1 µM
# [37] = second compound 0.0316 µM, first compound 3.16 µM
# [38] = second compound 0.0316 µM, first compound 10 µM
# [39] = second compound 0.1 µM, first compound 3.16 µM
# [40] = second compound 0.1 µM, first compound 10 µM
# [41] = second compound 0.316 µM, first compound 3.16 µM
# [42] = second compound 0.316 µM, first compound 10 µM
# [43] = second compound 1 µM, first compound 3.16 µM
# [44] = second compound 1 µM, first compound 10 µM
# [45] = second compound 3.16 µM, first compound 3.16 µM
# [46] = second compound 3.16 µM, first compound 10 µM
# [47] = second compound 10 µM, first compound 3.16 µM
# [48] = second compound 10 µM, first compound 10 µM
# 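Also: spheroids exposed to drugs for seven days before measurement.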
# 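For viability, T/C in this document: percent viability relative to DMSO vehicle control wells taken as 100%.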
smiles,measurement,setting,value
C=CCn1c(=O)c2cnc(Nc3ccc(N4CCN(C)CC4)cc3)nc2n1-c1cccc(C(C)(C)O)n1 + Cc1cccc(N(C)C(=O)C2C(O)CCN2c2nc(C)cc(C(F)(F)F)c2C#N)c1,IC50,second compound 0.0316 µM,470 nM
same,IC50,second compound 0.1 µM,464 nM
same,IC50,second compound 0.316 µM,449 nM
same,IC50,second compound 1 µM,481 nM
same,IC50,second compound 3.16 µM,479 nM
same,IC50,second compound 10 µM,452 nM
same,"viability, T/C",[1],109%
same,"viability, T/C",[2],103%
same,"viability, T/C",[3],105%
same,"viability, T/C",[4],106%
same,"viability, T/C",[5],71.5%
same,"viability, T/C",[6],9.25%
same,"viability, T/C",[7],98%
same,"viability, T/C",[8],104%
same,"viability, T/C",[9],102%
same,"viability, T/C",[10],108%
same,"viability, T/C",[11],70.7%
same,"viability, T/C",[12],8.44%
same,"viability, T/C",[13],96.6%
same,"viability, T/C",[14],98.9%
same,"viability, T/C",[15],103%
same,"viability, T/C",[16],103%
same,"viability, T/C",[17],68.4%
same,"viability, T/C",[18],7.81%
same,"viability, T/C",[19],113%
same,"viability, T/C",[20],97.3%
same,"viability, T/C",[21],104%
same,"viability, T/C",[22],110%
same,"viability, T/C",[23],74.1%
same,"viability, T/C",[24],7.99%
same,"viability, T/C",[25],112%
same,"viability, T/C",[26],106%
same,"viability, T/C",[27],99.7%
same,"viability, T/C",[28],102%
same,"viability, T/C",[29],72.8%
same,"viability, T/C",[30],9.03%
same,"viability, T/C",[31],105%
same,"viability, T/C",[32],105%
same,"viability, T/C",[33],97%
same,"viability, T/C",[34],98.8%
same,"viability, T/C",[35],68.5%
same,"viability, T/C",[36],8.81%
CNCc1ccc(-c2[nH]c3cc(F)cc4c3c2CCNC4=O)cc1 + Cc1cccc(N(C)C(=O)C2C(O)CCN2c2nc(C)cc(C(F)(F)F)c2C#N)c1,IC50,second compound 0.0316 µM,> 10000 nM
same,IC50,second compound 0.1 µM,> 10000 nM
same,IC50,second compound 0.316 µM,> 10000 nM
same,IC50,second compound 1 µM,> 10000 nM
same,IC50,second compound 3.16 µM,> 10000 nM
same,IC50,second compound 10 µM,> 10000 nM
same,"viability, T/C",[3],110%
same,"viability, T/C",[4],96.1%
same,"viability, T/C",[5],101%
same,"viability, T/C",[6],103%
same,"viability, T/C",[37],101%
same,"viability, T/C",[38],79.1%
same,"viability, T/C",[9],94%
same,"viability, T/C",[10],108%
same,"viability, T/C",[11],97.8%
same,"viability, T/C",[12],102%
same,"viability, T/C",[39],99.4%
same,"viability, T/C",[40],83%
same,"viability, T/C",[15],106%
same,"viability, T/C",[16],102%
same,"viability, T/C",[17],107%
same,"viability, T/C",[18],98.9%
same,"viability, T/C",[41],104%
same,"viability, T/C",[42],85.8%
same,"viability, T/C",[21],108%
same,"viability, T/C",[22],111%
same,"viability, T/C",[23],103%
same,"viability, T/C",[24],97.2%
same,"viability, T/C",[43],100%
same,"viability, T/C",[44],86.6%
same,"viability, T/C",[27],109%
same,"viability, T/C",[28],105%
same,"viability, T/C",[29],105%
same,"viability, T/C",[30],106%
same,"viability, T/C",[45],106%
same,"viability, T/C",[46],82.9%
same,"viability, T/C",[33],118%
same,"viability, T/C",[34],105%
same,"viability, T/C",[35],101%
same,"viability, T/C",[36],95.6%
same,"viability, T/C",[47],106%
same,"viability, T/C",[48],74.9%
COc1cccc(OCCCN)c1-c1cc(Nc2cnc(C#N)cn2)n[nH]1 + Cc1cccc(N(C)C(=O)C2C(O)CCN2c2nc(C)cc(C(F)(F)F)c2C#N)c1,IC50,second compound 0.0316 µM,17.8 nM
same,IC50,second compound 0.1 µM,16 nM
same,IC50,second compound 0.316 µM,16 nM
same,IC50,second compound 1 µM,13.4 nM
same,IC50,second compound 3.16 µM,13.2 nM
same,IC50,second compound 10 µM,13.6 nM
same,"viability, T/C",[1],109%
same,"viability, T/C",[2],78.1%
same,"viability, T/C",[3],21.9%
same,"viability, T/C",[4],7.22%
same,"viability, T/C",[5],5.75%
same,"viability, T/C",[6],4.08%
same,"viability, T/C",[7],95%
same,"viability, T/C",[8],75.2%
same,"viability, T/C",[9],13.4%
same,"viability, T/C",[10],7.01%
same,"viability, T/C",[11],6.2%
same,"viability, T/C",[12],4.45%
same,"viability, T/C",[13],102%
same,"viability, T/C",[14],77.6%
same,"viability, T/C",[15],10%
same,"viability, T/C",[16],6.6%
same,"viability, T/C",[17],5.64%
same,"viability, T/C",[18],5.58%
same,"viability, T/C",[19],104%
same,"viability, T/C",[20],64.2%
same,"viability, T/C",[21],8.06%
same,"viability, T/C",[22],5.29%
same,"viability, T/C",[23],5.1%
same,"viability, T/C",[24],4.45%
same,"viability, T/C",[25],112%
same,"viability, T/C",[26],63%
same,"viability, T/C",[27],9.04%
same,"viability, T/C",[28],6.82%
same,"viability, T/C",[29],5.92%
same,"viability, T/C",[30],6.01%
same,"viability, T/C",[31],98.6%
same,"viability, T/C",[32],64.2%
same,"viability, T/C",[33],11.1%
same,"viability, T/C",[34],5.73%
same,"viability, T/C",[35],6.26%
same,"viability, T/C",[36],5.41%
O=C(c1cc(Cc2n[nH]c(=O)c3ccccc23)ccc1F)N1CCN(C(=O)C2CC2)CC1 + Cc1cccc(N(C)C(=O)C2C(O)CCN2c2nc(C)cc(C(F)(F)F)c2C#N)c1,IC50,second compound 0.0316 µM,> 10000 nM
same,IC50,second compound 0.1 µM,> 10000 nM
same,IC50,second compound 0.316 µM,> 10000 nM
same,IC50,second compound 1 µM,> 10000 nM
same,IC50,second compound 3.16 µM,> 10000 nM
same,IC50,second compound 10 µM,> 10000 nM
same,"viability, T/C",[3],99.8%
same,"viability, T/C",[4],107%
same,"viability, T/C",[5],95.3%
same,"viability, T/C",[6],103%
same,"viability, T/C",[37],98%
same,"viability, T/C",[38],61.4%
same,"viability, T/C",[9],94.7%
same,"viability, T/C",[10],103%
same,"viability, T/C",[11],103%
same,"viability, T/C",[12],99.3%
same,"viability, T/C",[39],91.4%
same,"viability, T/C",[40],64.8%
same,"viability, T/C",[15],99.1%
same,"viability, T/C",[16],110%
same,"viability, T/C",[17],106%
same,"viability, T/C",[18],106%
same,"viability, T/C",[41],94.5%
same,"viability, T/C",[42],61%
same,"viability, T/C",[21],105%
same,"viability, T/C",[22],96.8%
same,"viability, T/C",[23],109%
same,"viability, T/C",[24],102%
same,"viability, T/C",[43],91.1%
same,"viability, T/C",[44],62%
same,"viability, T/C",[27],108%
same,"viability, T/C",[28],98.5%
same,"viability, T/C",[29],104%
same,"viability, T/C",[30],96.2%
same,"viability, T/C",[45],96.3%
same,"viability, T/C",[46],62.6%
same,"viability, T/C",[33],108%
same,"viability, T/C",[34],105%
same,"viability, T/C",[35],102%
same,"viability, T/C",[36],98.4%
same,"viability, T/C",[47],92%
same,"viability, T/C",[48],57.7%

# — PubChem BioAssay AID1963846 (Molecular Pharmacology Branch, DTP, NCI, 2024)
